Assay: recombinant UMI read abundance after kanamycin selection (control-corrected) (log10(CPM+1)); higher = more efficient recombination; extreme values may be limits of the assay; sequences stand for … in AGTGCAGAGAAAATCGGCCAGTTTTCTCTGCCTGCAGTCCGCATGCCGTGGGACCCCTTGGGTTCTAACCTGTTGCCTAGATTTATGCAGCGGACTGCCTTTCTCCCAAAGTGATAAACCGG…AGGTTGGTTTCACT; site = the 11-nt donor
How it was run: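 After plating on IPTG (0.07 mM) plus kanamycin, or unselected, in two replicates, recombinant UMIs were PCR-amplified across the donor–target junction and sequenced. The cells were Escherichia coli co-electroporated with a UMI-tagged donor and donor-binding-loop pair library and a target plasmid with a fixed target and T7-inducible IS621 bridge recombinase. Values are log10(CPM+1), with CPM averaged over replicates and scaled by control-derived factors.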

Row | Sequence | recombinant UMI read abundance (log10)
1 | ATTCAAGCATGGACCGGTTTTCCCGGTAATCCGTATTTGAG (site ATCCAAGCTCT) | 0.605
2 | AGGCTTTCATGGACCGGTTTTCCCGGTAATCCGTATTTGGC (site AGGCTTTCTGC) | 1.61
3 | ATCCACGCATGGACCGGTTTTCCCGGTAATCCGTATTTGAG (site ATCCAAGCTCT) | 0.00979
4 | GAGCGAGCATGGACCGGTTTTCCCGGTAATCCGTATTTGTA (site GAGCGAGCTTA) | 2.57
5 | GTGCAGGCATGGACCGGTTTTCCCGGTAATCCGTATTTGTG (site GTGGAGGCTCA) | 0.393
6 | CCATGTGCATGGACCGGTTTTCCCGGTAATCCGTATTTGAT (site CCATGTGCTAT) | 1.09
7 | ACTACTGCATGGACCGGTTTTCCCGGTAATCCGTATTTGCC (site GCTACTGCTGG) | 0.946
8 | GTACATTCATGGACCGGTTTTCCCGGTAATCCGTATTTGAT (site GTACATTCTAT) | 2.04
9 | GGATAGGCATGGACCGGTTTTCCCGGTAATCCGTATTTGCC (site GGATAGTCTGG) | 0.642
10 | ACTAAAGCATGGACCGGTTTTCCCGGTAATCCGTATTTGAT (site GCTAAAGCTAT) | 0.0031
11 | ATTGTAACATGGACCGGTTTTCCCGGTAATCCGTATTTGCT (site AGTGTAACTAG) | 1.5
12 | ACCTAGACATGGACCGGTTTTCCCGGTAATCCGTATTTGAG (site ACCTAGACTCT) | 1.17
13 | ACTAGAGCATGGACCGGTTTTCCCGGTAATCCGTATTTGGT (site ACTAGGGCTAC) | 0.647
14 | GGTACGTCATGGACCGGTTTTCCCGGTAATCCGTATTTGGT (site GGTACGTCTAT) | 0.339
15 | CGATCGACATGGACCGGTTTTCCCGGTAATCCGTATTTGTT (site CGCTCGACTAA) | 0.0137
16 | GCTCGCGCATGGACCGGTTTTCCCGGTAATCCGTATTTGTG (site GCTCGCGCTCA) | 0.397
17 | GATAGAACATGGACCGGTTTTCCCGGTAATCCGTATTTGGC (site GTTAGAACTGC) | 0
18 | CCCGGTCCATGGACCGGTTTTCCCGGTAATCCGTATTTGCA (site CCCGGTCCTAG) | 0
19 | ACTCGGCCATGGACCGGTTTTCCCGGTAATCCGTATTTGGT (site ACTCGGCCTAC) | 0.00855
20 | ATAACAGCATGGACCGGTTTTCCCGGTAATCCGTATTTGTT (site ATAACAGCTAA) | 1.92
21 | GGTCCGTCATGGACCGGTTTTCCCGGTAATCCGTATTTGTT (site GGTGCGTCTAA) | 0.0122
22 | GCGAAAACATGGACCGGTTTTCCCGGTAATCCGTATTTGCT (site GTGAAAACTAG) | 0
23 | AGGAAGACATGGACCGGTTTTCCCGGTAATCCGTATTTGCA (site AGGGAGACTTA) | 0.00967
24 | CTCTGGCCATGGACCGGTTTTCCCGGTAATCCGTATTTGCG (site CTCTGGCCTCG) | 0
25 | AAGCGTCCATGGACCGGTTTTCCCGGTAATCCGTATTTGAT (site AAGCGTCCTAT) | 1.17

Row | Sequence | recombinant UMI read abundance (log10)
26 | TGCTTGCCATGGACCGGTTTTCCCGGTAATCCGTATTTGAA (site TGCTTGCCTTT) | 0.0149
27 | TGCACCGCATGGACCGGTTTTCCCGGTAATCCGTATTTGCG (site TCCACCGCTCG) | 0.0173
28 | TTTCGAGCATGGACCGGTTTTCCCGGTAATCCGTATTTGCA (site GTTCGAGCTTG) | 0.969
29 | AGGAAGACATGGACCGGTTTTCCCGGTAATCCGTATTTGCA (site AGGAAGACTTA) | 1.62
30 | ATAAGGCCATGGACCGGTTTTCCCGGTAATCCGTATTTGAC (site ATAAGGACTGT) | 0.956
31 | GCCATGCCATGGACCGGTTTTCCCGGTAATCCGTATTTGTA (site GCCACGCCTTA) | 0.0146
32 | ATGCAGGCATGGACCGGTTTTCCCGGTAATCCGTATTTGGC (site ATGTAGGCTGC) | 0.922
33 | GCCCCGCCATGGACCGGTTTTCCCGGTAATCCGTATTTGTA (site GCCACGCCTTA) | 0.324
34 | ACCTAGACATGGACCGGTTTTCCCGGTAATCCGTATTTGAG (site ACCTAGACTCG) | 0.352
35 | GGGAAGCCATGGACCGGTTTTCCCGGTAATCCGTATTTGGG (site GCGAAGCCTCC) | 0
36 | GTAGGTACATGGACCGGTTTTCCCGGTAATCCGTATTTGAC (site ATAGGTACTGT) | 2.02
37 | AGGCAGACATGGACCGGTTTTCCCGGTAATCCGTATTTGCT (site AGGCAGACTAG) | 2.13
38 | CGATCGCCATGGACCGGTTTTCCCGGTAATCCGTATTTGCT (site CGATCATCTAG) | 0
39 | CGGTGGACATGGACCGGTTTTCCCGGTAATCCGTATTTGGG (site CGGTGGACTCC) | 0.024
40 | TGTGCTGCATGGACCGGTTTTCCCGGTAATCCGTATTTGTA (site TGTGCTGCTTA) | 0.0197
41 | AGGAAGACATGGACCGGTTTTCCCGGTAATCCGTATTTGCA (site AGCAAGACTAG) | 0.0137
42 | CCCCACACATGGACCGGTTTTCCCGGTAATCCGTATTTGGA (site CCCCACACTTG) | 0
43 | CTAGTCTCATGGACCGGTTTTCCCGGTAATCCGTATTTGAG (site CTAGTATCTGT) | 0
44 | CCCCACACATGGACCGGTTTTCCCGGTAATCCGTATTTGGA (site CCCCACACTTC) | 0.275
45 | AACCGTCCATGGACCGGTTTTCCCGGTAATCCGTATTTGCT (site AACCGTCCTAG) | 0.593
46 | CTTCTCTCATGGACCGGTTTTCCCGGTAATCCGTATTTGAA (site CTTCTCTCTTT) | 0.96
47 | GTTAGAACATGGACCGGTTTTCCCGGTAATCCGTATTTGCC (site GTTAGAACTGG) | 0
48 | CTTCTAACATGGACCGGTTTTCCCGGTAATCCGTATTTGGA (site CTGCTAACTTC) | 0.00962
49 | GGCAATGCATGGACCGGTTTTCCCGGTAATCCGTATTTGAA (site GGCAATTCTTT) | 0.536
50 | CGGGGGTCATGGACCGGTTTTCCCGGTAATCCGTATTTGCC (site CGGGAGTCTGG) | 0.865

Row | Sequence | recombinant UMI read abundance (log10)
51 | GGCCACCCATGGACCGGTTTTCCCGGTAATCCGTATTTGTT (site GGCAACCCTAA) | 0.00185
52 | GAAAGCTCATGGACCGGTTTTCCCGGTAATCCGTATTTGCG (site GAAAGCTCTCG) | 2.77
53 | GTATGCACATGGACCGGTTTTCCCGGTAATCCGTATTTGAA (site GTATGCACTTG) | 0.0145
54 | CTCTACTCATGGACCGGTTTTCCCGGTAATCCGTATTTGCT (site CTCTACTCTAG) | 2.5
55 | GTAGGTACATGGACCGGTTTTCCCGGTAATCCGTATTTGAC (site GTAGGTCCTGT) | 0
56 | TACTTAACATGGACCGGTTTTCCCGGTAATCCGTATTTGCT (site TACTTCACTAG) | 0.00655
57 | CTCGGTCCATGGACCGGTTTTCCCGGTAATCCGTATTTGCA (site CTCGGTCCTTG) | 0.517
58 | AAGCGTCCATGGACCGGTTTTCCCGGTAATCCGTATTTGAT (site AAACGTCCTAT) | 0.245
59 | CAGTCGACATGGACCGGTTTTCCCGGTAATCCGTATTTGGG (site CAATCGACTCC) | 0.0099
60 | GATTAGACATGGACCGGTTTTCCCGGTAATCCGTATTTGAC (site GATTGGACTGT) | 0
61 | ATATAGGCATGGACCGGTTTTCCCGGTAATCCGTATTTGGC (site ATATAGGCTGC) | 2.39
62 | CAGTCGACATGGACCGGTTTTCCCGGTAATCCGTATTTGGG (site CAGCCGACTCC) | 0.00881
63 | AAGCTAGCATGGACCGGTTTTCCCGGTAATCCGTATTTGAA (site TAGCTAGCTTT) | 1.48
64 | CGAGGAACATGGACCGGTTTTCCCGGTAATCCGTATTTGGG (site CGAGGACCTCC) | 0.0124
65 | TTGAATCCATGGACCGGTTTTCCCGGTAATCCGTATTTGTT (site CGGAATCCTAA) | 0
66 | CCCGGTCCATGGACCGGTTTTCCCGGTAATCCGTATTTGCT (site CCCGGTCCTTG) | 0
67 | CTCTACACATGGACCGGTTTTCCCGGTAATCCGTATTTGCT (site CTCTACCCTAG) | 0
68 | GCATCGACATGGACCGGTTTTCCCGGTAATCCGTATTTGCA (site GCATCGACTTG) | 2.56
69 | GAAACACCATGGACCGGTTTTCCCGGTAATCCGTATTTGTT (site GAAACACCTAA) | 0.0036
70 | GCAGATCCATGGACCGGTTTTCCCGGTAATCCGTATTTGCT (site GCAGATCCTAG) | 0
71 | AAAGGTTCATGGACCGGTTTTCCCGGTAATCCGTATTTGGG (site AAAGGTTCTCC) | 1.05
72 | GTGCGTGCATGGACCGGTTTTCCCGGTAATCCGTATTTGGT (site GTGCGTGCTAC) | 0.346
73 | GGTACGTCATGGACCGGTTTTCCCGGTAATCCGTATTTGTT (site CGTACGTCTAA) | 0
74 | GGTACTTCATGGACCGGTTTTCCCGGTAATCCGTATTTGAT (site GGTACTTCTAT) | 0.4
75 | AACGGAACATGGACCGGTTTTCCCGGTAATCCGTATTTGAT (site AACGGAACTAT) | 2.33

From the supplement of paper PMC11208160
